From patent US7994318B2, “Coumarin derivatives useful as TNFα inhibitors” (Chugai Seiyaku Kabushiki Kaisha, priority 2000, dated 2011)
Like-named read-outs stand apart in the source and are kept apart here.

Tested on: TNFα
Experiment: In vitro assay: TNFα ELISA of supernatants of LPS-stimulated human PBMC
Assay type: cell-based
Conditions: human PBMC pretreated with drug 60 min, stimulated with LPS (E. coli O55:B5) 100 ng/mL, overnight culture, TNFα in supernatant by ELISA, read-out: 50% Inhibition of TNFα level (IC50)
Description: Enzyme-linked immunosorbent assays (ELISA) for TNFα can be performed in a conventional manner (Blood, 75, 40-47 (1990)). Human PBMC are isolated from heparinized venous blood obtained from healthy volunteers by Ficoll-Hypaque density centrifugation. The cells are cultured in RPMI1640 medium supplemented with 5% heat-inactivated fetal calf serum and antibiotics. PBMC (5×10E5 cells/mL) in 0.2 mL aliquot are pretreated with drugs in DMSO for 60 min at 37° C. in 96 well round-bottomed tissue culture plates. Thereafter, PBMC in the presence or absence of compound are stimulated with 1 mg/mL LPS from E. coli O55:B5 at a final concentration of 100 ng/mL. After overnight culture, the supernatants are harvested and assayed immediately for TNFα levels from each well. The concentration of TNFα in the supernatant is determined by human TNFα ELISA Kit according to the manufacture's directions.
Active compounds are characterized by the concentration of the compound that caused 50% inhibition of TNFα level (IC50).

## Cc1c(Cc2ccccc2)c(=O)oc2cc(OC(=O)N(C)C)ccc12 [Example 1, dimethyl carbamic acid 2-oxo-2H-3-benzyl-4-methyl-1-benzopyran-7-yl ester]
Homo sapiens, PBMC
  IC50: 360 nM

## Cc1c(Cc2ccccc2)c(=O)oc2cc(OC(=O)N(C)C)c(Cl)cc12 [Example 2, dimethyl carbamic acid 2-oxo-2H-3-benzyl-4-methyl-6-chloro-1-benzopyran-7-yl ester]
Homo sapiens, PBMC
  IC50: 90 nM

## COc1cc2c(C)c(Cc3ccccc3)c(=O)oc2cc1OC(=O)N(C)C [Example 3, dimethyl carbamic acid 2-oxo-2H-3-benzyl-4-methyl-6-methoxy-1-benzopyran-7-yl ester]
Homo sapiens, PBMC
  IC50: 580 nM

## CN(C)C(=O)Oc1ccc2c(CCO)c(Cc3ccccc3)c(=O)oc2c1 [Example 4, dimethyl carbamic acid 2-oxo-2H-3-benzyl-4-(2-hydroxylethyl)-1-benzopyran-7-yl ester]
Homo sapiens, PBMC
  IC50: 2100 nM

## CN(C)C(=O)Oc1ccc2c(CC(O)c3ccccn3)c(Cc3ccccc3)c(=O)oc2c1 (stereo not drawn) [Example 5, dimethyl carbamic acid 2-oxo-2H-3-benzyl-4-(2-(2-pyridyl)-2-hydroxylethyl)-1-benzopyran-7-yl ester]
Homo sapiens, PBMC
  IC50: 19300 nM

## Cc1c(Cc2ccccc2)c(=O)oc2c(C=O)c(OC(=O)N(C)C)ccc12 [Example 6, dimethyl carbamic acid 2-oxo-2H-3-benzyl-4-methyl-8-formyl-1-benzopyran-7-yl ester]
Homo sapiens, PBMC
  IC50: 12900 nM

## CCCc1c(Cc2ccc(F)cc2)c(=O)oc2cc(OC(=O)N(C)C)ccc12 [Example 7, dimethyl carbamic acid 2-oxo-2H-3-(4-fluorobenzyl)-4-n-propyl-1-benzopyran-7-yl ester]
Homo sapiens, PBMC
  IC50: 1170 nM

## CN(C)C(=O)Oc1ccc2c(-c3cccnc3)c(Cc3ccccc3)c(=O)oc2c1 [Example 8, dimethyl carbamic acid 2-oxo-2H-3-benzyl-4-(m-pyridyl)-1-benzopyran-7-yl ester]
Homo sapiens, PBMC
  IC50: 18700 nM

## Cc1c(Cc2ccccc2)c(=O)oc2cc(OC(=O)N(C)C)c(C#N)cc12 [Example 9, dimethyl carbamic acid 2-oxo-2H-3-benzyl-4-methyl-6-cyano-1-benzopyran-7-yl ester]
Homo sapiens, PBMC
  IC50: 850 nM

## Cc1c(Cc2ccccc2)c(=O)oc2cc(OC(=O)N(C)C)cc(F)c12 [Example 10, dimethyl carbamic acid 2-oxo-2H-3-benzyl-4-methyl-5-fluoro-1-benzopyran-7-yl ester]
Homo sapiens, PBMC
  IC50: < 600 nM
Listed as 14-4
  IC50: 440 nM

## Cc1c(Cc2ccncc2)c(=O)oc2cc(OC(=O)N(C)C)c(Cl)cc12 [Example 11, dimethyl carbamic acid 2-oxo-2H-3-(p-pyridinylmethyl)-4-methyl-6-chloro-1-benzopyran-7-yl ester]
Homo sapiens, PBMC
  IC50: 130 nM

## CC(=O)Nc1cccc(Cc2c(C)c3cc(Cl)c(OC(=O)N(C)C)cc3oc2=O)c1 [Example 12, dimethyl carbamic acid 2-oxo-2H-3-(m-acetylamidobenzyl)-4-methyl-6-chloro1-benzopyran-7-yl ester]
Homo sapiens, PBMC
  IC50: < 600 nM
Listed as 14-25
  IC50: 310 nM

## Cc1c(Cc2ccccc2)c(=O)oc2cc(SC(=O)N(C)C)ccc12 [Example 13, dimethyl thiocarbamic acid S-2-oxo-2H-3-benzyl-4-methyl-1-benzopyran-7-yl ester]
Homo sapiens, PBMC
  IC50: 680 nM

## Cc1c(Cc2cccc([N+](=O)[O-])c2)c(=O)oc2cc(OC(=O)N(C)C)cc(F)c12 [Example 14-5]
  IC50: 3700 nM

## Cc1c(Cc2cccc(N)c2)c(=O)oc2cc(OC(=O)N(C)C)cc(F)c12 [Example 14-6]
  IC50: 1600 nM

## CC(=O)Nc1cccc(Cc2c(C)c3c(F)cc(OC(=O)N(C)C)cc3oc2=O)c1 [Example 14-7]
  IC50: 1000 nM

## CCOC(=O)CC(=O)Nc1cccc(Cc2c(C)c3c(F)cc(OC(=O)N(C)C)cc3oc2=O)c1 [Example 14-8]
  IC50: 140 nM

## CCc1cc2c(C)c(Cc3ccccc3)c(=O)oc2cc1OC(=O)N(C)C [Example 14-9]
  IC50: 4600 nM

## Cc1c(Cc2ccccc2)c(=O)oc2cc(OC(=O)N(C)C)c(I)cc12 [Example 14-12]
  IC50: 60 nM

## Cc1cc2c(C)c(Cc3ccccc3)c(=O)oc2cc1OC(=O)N(C)C [Example 14-14]
  IC50: 400 nM

## Cc1c(Cc2ccccc2)c(=O)oc2cc(OC(=O)N(C)C)c(Br)cc12 [Example 14-15]
  IC50: 60 nM

## Cc1c(Cc2ccccc2)c(=O)oc2cc(OC(=O)N(C)C)c(C=O)cc12 [Example 14-16]
  IC50: 9600 nM

## Cc1c(Cc2ccccc2)c(=O)oc2cc(OC(=O)N(C)C)c([N+](=O)[O-])cc12 [Example 14-17]
  IC50: 120 nM

## Cc1c(Cc2ccccc2)c(=O)oc2cc(OC(=O)N(C)C)c(C#C[Si](C)(C)C)cc12 [Example 14-18]
  IC50: 3900 nM

## Cc1c(Cc2ccccc2N)c(=O)oc2cc(OC(=O)N(C)C)c(Cl)cc12 [Example 14-20]
  IC50: 490 nM

## Cc1c(Cc2ccccc2[N+](=O)[O-])c(=O)oc2cc(OC(=O)N(C)C)c(Cl)cc12 [Example 14-21]
  IC50: 3000 nM

## Cc1c(Cc2cccc([N+](=O)[O-])c2)c(=O)oc2cc(OC(=O)N(C)C)c(Cl)cc12 [Example 14-23]
  IC50: < 600 nM

## Cc1c(Cc2cccc(N)c2)c(=O)oc2cc(OC(=O)N(C)C)c(Cl)cc12 [Example 14-24]
  IC50: 460 nM

## CCOC(=O)CC(=O)Nc1cccc(Cc2c(C)c3cc(Cl)c(OC(=O)N(C)C)cc3oc2=O)c1 [Example 14-26]
  IC50: 50 nM

## Cc1c(Cc2ccccn2)c(=O)oc2cc(OC(=O)N(C)C)ccc12 [Example 14-30]
  IC50: 6470 nM

## Cc1c(Cc2cccnc2)c(=O)oc2cc(OC(=O)N(C)C)ccc12 [Example 14-31]
  IC50: 2200 nM

## Cc1c(Cc2ccncc2)c(=O)oc2cc(OC(=O)N(C)C)ccc12 [Example 14-32]
  IC50: 1300 nM

## Cc1c(Cc2cccnc2)c(=O)oc2c(C)c(OC(=O)N(C)C)ccc12 [Example 14-33]
  IC50: 8400 nM

## Cc1c(Cc2cccnc2)c(=O)oc2cc(OC(=O)N(C)C)c(Cl)cc12 [Example 14-35]
  IC50: 450 nM

## Cc1c(Cc2ccc(S(C)(=O)=O)cc2)c(=O)oc2cc(OC(=O)N(C)C)ccc12 [Example 14-43]
  IC50: 6600 nM

## COc1ccccc1Cc1c(C)c2ccc(OC(=O)N(C)C)cc2oc1=O [Example 14-44]
  IC50: 7500 nM

## COc1cccc(Cc2c(C)c3ccc(OC(=O)N(C)C)cc3oc2=O)c1 [Example 14-45]
  IC50: 3200 nM

## COc1ccc(Cc2c(C)c3ccc(OC(=O)N(C)C)cc3oc2=O)cc1 [Example 14-46]
  IC50: 5600 nM

## Cc1c(Cc2ccc(C(C)C)cc2)c(=O)oc2cc(OC(=O)N(C)C)ccc12 [Example 14-52]
  IC50: 11600 nM

## Cc1c(Cc2cccc([N+](=O)[O-])c2)c(=O)oc2cc(OC(=O)N(C)C)ccc12 [Example 14-56]
  IC50: 4500 nM

## CC(=O)Nc1cccc(Cc2c(C)c3ccc(OC(=O)N(C)C)cc3oc2=O)c1 [Example 14-60]
  IC50: 1100 nM

## CC(=O)Nc1ccc(Cc2c(C)c3ccc(OC(=O)N(C)C)cc3oc2=O)cc1 [Example 14-61]
  IC50: 5800 nM

## Cc1c(Cc2ccccc2N)c(=O)oc2cc(OC(=O)N(C)C)ccc12 [Example 14-64]
  IC50: 2100 nM

## Cc1c(Cc2cccc(N)c2)c(=O)oc2cc(OC(=O)N(C)C)ccc12 [Example 14-65]
  IC50: 2700 nM

## Cc1c(Cc2ccc(N)cc2)c(=O)oc2cc(OC(=O)N(C)C)ccc12 [Example 14-66]
  IC50: 5200 nM

## COC(=O)c1cccc(Cc2c(C)c3ccc(OC(=O)N(C)C)cc3oc2=O)c1 [Example 14-67]
  IC50: 1700 nM

## CCNC(=O)Nc1cccc(Cc2c(C)c3ccc(OC(=O)N(C)C)cc3oc2=O)c1 [Example 14-69]
  IC50: 2400 nM

## CCOC(=O)CNC(=O)Nc1cccc(Cc2c(C)c3ccc(OC(=O)N(C)C)cc3oc2=O)c1 [Example 14-71]
  IC50: 2400 nM

## Cc1c(Cc2cccc(N(C)C)c2)c(=O)oc2cc(OC(=O)N(C)C)ccc12 [Example 14-72]
  IC50: 1900 nM

## CCc1c(Cc2ccccc2)c(=O)oc2cc(OC(=O)N(C)C)ccc12 [Example 14-73]
  IC50: 1700 nM

## CCc1c(Cc2ccccc2)c(=O)oc2cc(OC(=O)N(C)C)c(Cl)cc12 [Example 14-74]
  IC50: 240 nM

## CCc1c(Cc2cccc([N+](=O)[O-])c2)c(=O)oc2cc(OC(=O)N(C)C)ccc12 [Example 14-77]
  IC50: 900 nM

## CCc1c(Cc2cccc(N)c2)c(=O)oc2cc(OC(=O)N(C)C)ccc12 [Example 14-78]
  IC50: 1300 nM

## CCc1c(Cc2cccc(NC(C)=O)c2)c(=O)oc2cc(OC(=O)N(C)C)ccc12 [Example 14-79]
  IC50: 1600 nM

## CCc1c(Cc2ccncc2)c(=O)oc2cc(OC(=O)N(C)C)ccc12 [Example 14-80]
  IC50: 2400 nM

## CCc1c(Cc2ccncc2)c(=O)oc2cc(OC(=O)N(C)C)c(Cl)cc12 [Example 14-81]
  IC50: 340 nM

## CCCc1c(Cc2ccccc2)c(=O)oc2cc(OC(=O)N(C)C)c(Cl)cc12 [Example 14-83]
  IC50: 780 nM

## CN(C)C(=O)Oc1ccc2c(-c3ccccc3)c(Cc3ccc(F)cc3)c(=O)oc2c1 [Example 14-84]
  IC50: 1670 nM
